The target in assay [1] is T1, CpsIadA (Colwellia psychrerythraea, UniProt Q484B6).
T1 construct: gene iadA; Ni-NTA and gel filtration; homo-octamer (314 kDa by AUC), two Zn ions per active site
Description: coupled spectrophotometric assay (aspartate aminotransferase/malate dehydrogenase, NADH at […] nm). The conditions noted are these: 100 mM HEPES pH 8.0, 100 mM KCl, 30°C. Format: biochemical.

Assay [2] concerns the target T1, CpsIadA. Description: coupled assay with L-alanine dehydrogenase/diaphorase, INT reduction at […] nm. The format is biochemical. The note with it: 100 mM HEPES pH 8.0, 1.5 mM INT, 1.5 mM NAD+, 30°C.
Assay [3] deals with isoaspartyl dipeptidase from Colwellia psychrerythraea strain 34H (CpsIadA), wild type (Colwellia psychrerythraea strain 34H) (UniProt Q484B6). Description: AUC; sedimentation velocity, 20°C, 0.5 mg/mL CpsIadA, 25 mM Tris-HCl pH 8.0, 200 mM NaCl, 5 mM MgCl2, 2 mM dithiothreitol, 45,000 rpm, SEDFIT; self-association (octamer).
Assay [4] shares this target. Nature of the assay: SEC; analytical size-exclusion chromatography; conditions not given; self-association (octamer). On the technique in general: Size exclusion chromatography separates by hydrodynamic size, large species first.
Assay [5] shares this target. Description: crystal structure; ligand-free wild type CpsIadA, 1.85 Å, space group P4212, two monomers in the asymmetric unit; 0.1 M Bis-Tris propane pH 7.0, 1.4 M sodium malonate, 293 K.
In assay [6] the target is T2, CpsIadA (Colwellia psychrerythraea, UniProt Q484B6, E80Q, form not given).
T2 construct: gene iadA; Ni-NTA and gel filtration; homo-octamer (314 kDa by AUC), two Zn ions per active site
T2 sequence (Q484B6 entry or part of it E80Q, form open): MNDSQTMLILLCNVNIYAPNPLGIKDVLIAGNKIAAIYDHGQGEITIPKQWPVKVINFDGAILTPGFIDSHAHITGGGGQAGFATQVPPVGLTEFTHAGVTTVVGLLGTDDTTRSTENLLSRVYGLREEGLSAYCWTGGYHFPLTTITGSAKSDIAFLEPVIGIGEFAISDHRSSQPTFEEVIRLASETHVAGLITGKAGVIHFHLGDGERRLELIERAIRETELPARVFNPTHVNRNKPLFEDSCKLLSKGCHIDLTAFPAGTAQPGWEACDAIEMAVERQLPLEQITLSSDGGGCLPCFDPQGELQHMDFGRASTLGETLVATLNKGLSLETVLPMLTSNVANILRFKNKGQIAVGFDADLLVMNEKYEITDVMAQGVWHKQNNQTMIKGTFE
Nature of the assay: X-ray crystal structure of the complex ([…] Å). Format: binding. The conditions noted are these: active site, two Zn ions; 5 mM ligand added before crystallization; catalytically inactive mutant.

Assay [7] concerns the target CpsIadA E80Q mutant (Colwellia psychrerythraea strain 34H) (UniProt Q484B6). Nature of the assay: crystal structure; CpsIadA E80Q mutant with 5 mM β-aspartyl lysine, 2.33 Å, space group P4212, two monomers in the asymmetric unit; 0.1 M Bis-Tris propane pH 7.0, 1 M ammonium citrate tribasic pH 7.0, 293 K.

Where a SMILES comes first, the peptide text is derived from it.

T1 sequence (Q484B6 entry or part of it): as the sequence (Q484B6 entry or part of it E80Q, form open) above, with Q80E counted along it

Consider `CC(C)C[C@H](NC(=O)[C@@H](N)CC(=O)O)C(=O)O` [α-Asp-Leu] (H-Asp-Leu-OH), for which, at CpsIadA [1], the Km (usually the concentration of substrate that gives half-maximal velocity) worked out at 6900 ± 400 µM.
`C[C@H](NC(=O)CCN)C(=O)O` [β-Ala-Ala]: the Michaelis-Menten constant (Km) on CpsIadA [2] was found to be 930 ± 300 µM.
Turning to “isoaspartyl dipeptidase from Colwellia psychrerythraea strain 34H (CpsIadA), wild type (from UniProt Q484B6 1-395) (enzyme)”, the stoichiometry N in assay [3], in assay [4] and in assay [5] was 8 in each case.
With `N[C@@H](CC(=O)N[C@@H](Cc1ccccc1)C(=O)O)C(=O)O` [β-Asp-Phe], the Km at CpsIadA [1] is 490 ± 90 µM.
Still for that read-out and setting: to `CC(C)C[C@H](NC(=O)C[C@H](N)C(=O)O)C(=O)O` [β-Asp-Leu] belongs 710 ± 80 µM; to `C[C@H](NC(=O)C[C@H](N)C(=O)O)C(=O)O` [β-Asp-Ala], 1200 ± 300 µM; to `N[C@@H](CC(=O)NCC(=O)O)C(=O)O` [β-Asp-Gly], 4700 ± 400 µM.
Consider `NCCCC[C@H](NC(=O)C[C@H](N)C(=O)O)C(=O)O` [β-Asp-Lys], for which the “X-ray crystal structure of the complex (2.33 Å)” value at CpsIadA [6] was “β-isoaspartyl lysine bound CpsIadA E80Q mutant have been deposited in the Protein Data Bank”. Further, the Michaelis constant (Km) on CpsIadA [1] stood at 1100 ± 90 µM.
Consider `N[C@@H](CC(=O)N[C@@H](Cc1c[nH]cn1)C(=O)O)C(=O)O` [β-Asp-His], for which, on CpsIadA [1], the Michaelis-Menten constant (Km) turned out to be 5300 ± 500 µM.
Regarding “CpsIadA E80Q mutant (from UniProt Q484B6 1-395) (enzyme)”, the stoichiometry N (in general, a count of units in the complex or per binding partner) in assay [7] came to 8.
